# From patent US5426099A, “Process for inducing analgesia, peptides and therapeutic compositions” (Rutgers, The State University of New Jersey, priority 1991, dated 1995)
# Entries after “also recorded” stand apart in the source; their conditions may differ. Where no end group is shown, it is not given here.
# Key:
# [1] = test system: periaqueductal gray matter; conditions: administered to rats directly into the periaqueductal gray matter; Sullivan and Pert 1981; cited from earlier work
# lumbo-sacral spinal cord = conditions: administered to rats to the intrathecal space of the lumbo-sacral spinal cord; Komisaruk et al. 1988; cited from earlier work
# [2] = intrathecal injection; Cridland and Henry 1988; cited from earlier work
# [3] = reported; cited from earlier work
# systemic = test system: systemic; set-up: key to cardiac output / blood pressure / arterial blood flow: + = Stimulation; - = Inhibition; conditions: Said, cited from earlier work
# pancreatic cells = test system: pancreatic cells; set-up: key: + = Stimulation; - = Inhibition; conditions: Robberecht+ 76; cited from earlier work
# stomach = conditions: Said, Mutt+ 77; cited from earlier work
# trachea = conditions: Said, Mutt+ 77; cited from earlier work
# colon = test system: colon; set-up: key: + = Stimulation; - = Inhibition; conditions: cited from earlier work
# brain (amygdala) = test system: brain (amygdala); set-up: key: + = Stimulation; - = Inhibition; conditions: Quik+ 79; cited from earlier work
# mononuclear cells = test system: mononuclear cells; set-up: key: + = Stimulation; - = Inhibition; conditions: Ottaway+ 83; cited from earlier work
# pit. tumor cells = conditions: Westendorf+ 83; cited from earlier work
# eye = test system: eye; set-up: key: + = Stimulation; - = Inhibition; conditions: cited from earlier work
# arterial cells = test system: arterial cells; set-up: key: + = Stimulation; - = Inhibition; conditions: Huang+ 84; cited from earlier work
# cortical slices = test system: cortical slices; set-up: key: + = Stimulation; - = Inhibition; conditions: Magistretti+ 84; cited from earlier work
# brain arteries = conditions: Suzuki+ 84; cited from earlier work
# bronchi = conditions: Palmer+ 86; cited from earlier work
# Schwann cell = conditions: Evans+; cited from earlier work
# [4] = set-up: key: + = Stimulation; - = Inhibition; conditions: Pandol+ 86; cited from earlier work
# gastric mucosa = test system: gastric mucosa; set-up: key: + = Stimulation; - = Inhibition; conditions: Sutliff+ 86; cited from earlier work
# skin = test system: skin; set-up: key: + = Stimulation; - = Inhibition; conditions: Yanaihara+ 87; cited from earlier work
# vagina = test system: vagina; set-up: key: + = Stimulation; - = Inhibition; conditions: Fahrenkrug+ 88; cited from earlier work
# colonic cells = test system: colonic cells; set-up: key: + = Stimulation; - = Inhibition; conditions: McCabe+ 88; cited from earlier work
# genital tract = test system: genital tract; set-up: key: + = Stimulation; - = Inhibition; conditions: Fahrenkrug+ 88; cited from earlier work
# heart = test system: heart; set-up: key: + = Stimulation; - = Inhibition; conditions: Smitherman+ 88; cited from earlier work
# kidney = test system: kidney; set-up: key: + = Stimulation; - = Inhibition; conditions: Porter+ 88; cited from earlier work
# spinal cord cult. = test system: spinal cord cult.; set-up: key: + = Stimulation; - = Inhibition; conditions: Brenneman 88; cited from earlier work
# brain (IV vent.) = test system: brain (IV vent.); set-up: key: + = Stimulation; - = Inhibition; conditions: Drucker-Colin+ 88; cited from earlier work
# dienceph. cells = test system: dienceph. cells; set-up: key: + = Stimulation; - = Inhibition; conditions: Reichlin 88; cited from earlier work
# pancreatic acini = test system: pancreatic acini; set-up: key: + = Stimulation; - = Inhibition; conditions: Musso+ 88; cited from earlier work
# ovarian granulosa = test system: ovarian granulosa; set-up: key: + = Stimulation; - = Inhibition; conditions: cited from earlier work
# uterus = conditions: Morris+ 89; cited from earlier work
# [5] = test system: female Sprague-Dawley rats; experiment: Tail-flick latency to radiant heat
# [6] = test system: female Sprague-Dawley rats; experiment: Vocalization threshold to tail shock; type: in vivo, rat; conditions: intrathecal; for elevation in vocalization threshold: 30 min. postinjection; for vocalization threshold compared with saline group (significance): sulfate
# Excerpt: Electrical stimulation (100 millisecond trains of 60 Hz square waveform at three-second intervals ranging from 0.01 to 0.4 mA in 0.01 mA increments) is applied (under computer control using a Commodore 64C computer and a Coulbourn constant current stimulator) to the surface of the tail via two lengths of blunt 18-ga stainless steel tubing coated with conductive gel (Spectra 360 Electrode Gel; Parker Laboratories Inc., Orange, N.J. 07050) and taped to the midsection of the tail 2 cm apart, parallel to the axis of the tail. An ascending/descending method of limits is used to estimate the threshold (in mA) to induce vocalization. In this method, an observer records whether or not vocalization occurs in response to each shock. If an animal vocalizes at a particular current intensity, the current intensity is then reduced stepwise until a shock no longer elicits a vocalization response. Then the current is increased stepwise until the animal again vocalizes, and so on, until all mA values for 6 such inversions are obtained. The vocalization threshold estimate is the mean of these 6 values.
# The vocalization threshold to tail shock increased by 70% over baseline (pre-injection) levels by the first minute after the intrathecal injection of VIP 11-28 (molar quantity equivalent to 25 mcg VIP 11-28, hereafter referred to as 25 mcge [microgram equivalents]).
# Female Sprague-Dawley rats weighing 250 g are used in the testing. The rats are ovariectomized and implanted surgically through the cisterna magna with an intrathecal catheter (i.t.) (PE 10 polyethylene tubing 7.5 cm length) at least 1 week before testing.
# smooth muscle = experiment: Smooth muscle relaxant action
# [7] = test system: female Sprague-Dawley rats; experiment: Vocalization threshold to tail shock; type: in vivo, rat; conditions: intravenous, 3 mg
compound,measurement,setting,value
"CC[C@H](C)[C@H](NC(=O)[C@H](CO)NC(=O)[C@H](CC(N)=O)NC(=O)[C@H](CC(C)C)NC(=O)[C@H](Cc1ccc(O)cc1)NC(=O)[C@H](CCCCN)NC(=O)[C@H](CCCCN)NC(=O)[C@@H](NC(=O)[C@H](C)NC(=O)[C@H](CCSC)NC(=O)[C@H](CCC(N)=O)NC(=O)[C@H](CCCCN)NC(=O)[C@H](CCCNC(=N)N)NC(=O)[C@H](CC(C)C)NC(=O)[C@H](CCCNC(=N)N)NC(=O)[C@@H](NC(=O)[C@H](Cc1ccc(O)cc1)NC(=O)[C@H](CC(N)=O)NC(=O)[C@H](CC(=O)O)NC(=O)[C@@H](NC(=O)[C@H](Cc1ccccc1)NC(=O)[C@@H](NC(=O)[C@H](C)NC(=O)[C@H](CC(=O)O)NC(=O)[C@H](CO)NC(=O)[C@@H](N)Cc1c[nH]cn1)C(C)C)[C@@H](C)O)[C@@H](C)O)C(C)C)C(=O)N[C@@H](CC(C)C)C(=O)N[C@@H](CC(N)=O)C(N)=O [VIP 1-28, NH--His--Ser--Asp--Ala--Val--Phe--Thr--Asp--Asn--Tyr--Thr--Arg--Leu--Arg--Lys--Gln--Met--Ala--Val--Lys--Lys--Tyr--Leu--Asn--Ser--Ile--Leu--Asn--Amide]",analgesia through the central nervous system,[1],induced analgesia
same,analgesia through the central nervous system,lumbo-sacral spinal cord,induced analgesia
same,reaction time on a nociceptive test,[2],reduced reaction time
same,systemic vasodilator activity,[3],has systemic vasodilator activity
same,cardiac output,systemic; Mutt 75,+
same,hyperglycemia,systemic; Mutt 75,hyperglycemia
same,respiratory stimulation,systemic; Mutt 75,respiratory stimulation
same,arterial blood flow,systemic; Mutt+ 77,+
same,blood pressure,systemic; Mutt+ 77,-
same,cyclic AMP,pancreatic cells,+
same,smooth muscle relaxation,stomach,smooth muscle relaxation
same,smooth muscle relaxation,trachea,smooth muscle relaxation
same,smooth muscle motility,"colon; Said, Mutt+ 77",+
same,water flow,colon; Waldman+ 77,+
same,cyclic AMP,brain (amygdala),+
same,cyclic AMP,mononuclear cells,+
same,"ACTH, endorphin release",pit. tumor cells,"ACTH, endorphin release"
same,tear secretion,eye; Gilbard+ 88,+
same,intraocular pressure,eye; Mittag+ 87,-
same,adenylate cyclase,arterial cells,+
same,glycogenolypis,cortical slices,+
same,vasodilation,brain arteries,30
same,bronchodilation,bronchi,bronchodilation
same,neuronal hyperpolarization,Schwann cell,neuronal hyperpolarization
same,amylase release,[4],+
same,cyclic Amp,gastric mucosa,+
same,pepsinogen secretion,gastric mucosa,+
same,hair growth,skin,+
same,lubrication,vagina,+
same,chloride secretion,colonic cells,+
same,blood flow,genital tract,+
same,blood flow,heart,+
same,renin secretion rate,kidney,+
same,neuronal survival,spinal cord cult.,+
same,REM sleep,brain (IV vent.),+
same,somatostatin release,dienceph. cells,+
same,amylase release,pancreatic acini,+
same,androgen secretion,ovarian granulosa; Johnson 88,+
same,progesterone secretion,ovarian granulosa; Johnson+ 88,+
same,arterial relaxation,uterus,arterial relaxation
same,TFL elevation compared with saline group (significance),"[5]; intrathecal, VIP 1-28 group","approached, but did not reach, significance"
CN1CC[C@]23c4c5ccc(O)c4O[C@H]2[C@@H](O)C=C[C@H]3[C@H]1C5.O=S(=O)(O)O [morphine sulfate],elevation in vocalization threshold,[6]; 25 mcg,60%
same,vocalization threshold compared with saline group (significance),"[6]; 25 mcg, p<0.05, listed as morphine",significantly greater than the saline group
same,vocalization threshold compared with saline group (significance),"[6]; 25 mcg, p<0.05",significant elevation in vocalization threshold over the saline group at 20 and 30 min. post injection
same,TFL compared with other groups (significance),"[5]; intrathecal, 5 mcg",significantly greater than saline at 15 min. and all other groups except morphine 25 mcg at all points from 30-60 min.
same,TFL compared with other groups (significance),"[5]; intrathecal, 25 mcg, p<0.05, two-tailed, Duncan test",significantly greater than all other groups at all points from 5-60 minutes
"TRLRKQMAVKKYLNSILN-NH2 [VIP 11-28, NH--Thr--Arg--Leu--Arg--Lys--Gln--Met--Ala--Val--Lys--Lys--Tyr--Leu--Asn--Ser--Ile--Leu--Asn--Amide]",elevation in vocalization threshold,[6]; 25 mcge,170%
same,"vocalization threshold to tail shock, increase over baseline (pre-injection) levels","[6]; 25 mcge, first minute after injection, n=10",70%
same,persistence of the significant threshold elevating effect,"[6]; 25 mcge, vocalization threshold",≥ 60 min
same,vocalization threshold elevation compared with 25 mcg morphine sulfate (significance),"[6]; 25 mcge, at 1-15, 30 and 60 min. postinjection, p<0.05",significantly greater than both the morphine and the saline groups; also recorded: significantly more effective in elevating vocalization thresholds than 25 mcg morphine sulfate
same,vocalization threshold compared with saline control group (significance),"[6]; 25 mcge, p<0.05, 2-tailed, multiple t-tests",elevated over the saline control group levels at each test for the duration of the 60 min. test period
same,persistence of threshold elevating effect longer than analgesia produced by VIP 1-28,[6]; vocalization threshold,at least 30 min.
same,onset of analgesia post i.t. injection,[6]; vocalization threshold test,1 min
same,smooth muscle relaxant action,smooth muscle,has shown smooth muscle relaxant action
same,time of maximum vocalization threshold after injection,[7],1 min
same,vocalization threshold compared with saline (significance),[7],"approached, but did not reach, significance; also recorded: approaching, but not attaining, significance"
same,TFL change compared with saline group (significance),"[5]; intrathecal, 25 mcge, p<0.05, two-tailed, multiple t-test",significantly greater than the saline group
same,"mean TFL elevation, maximum, greater than the preinjection baseline level","[5]; intravenous (jugular vein catheter), 3 mg, 1 minute after injection, n=10",80%
same,TFL compared with saline control group (significance),"[5]; intravenous, 3 mg, p<0.05, 2-tailed, Scheffe test",significantly greater effect than saline
